# From the NIST ThermoML archive (doi:10.1016/j.jct.2018.05.018)
# ± gives the expanded uncertainty stated by the source.
# Conditions: 100 kPa, Liquid, Vibrating tube method
SMILES,mass density (293.15 K),mass density (298.15 K),mass density (303.15 K),mass density (308.15 K),mass density (313.15 K),mass density (318.15 K),mass density (323.15 K)
CCO [ethanol],789.48 ± 1.5 kg/m3,785.12 ± 1.5 kg/m3,780.86 ± 1.5 kg/m3,776.48 ± 1.5 kg/m3,772.17 ± 1.5 kg/m3,767.6 ± 1.5 kg/m3,763.22 ± 1.5 kg/m3
CO [methanol],791.41 ± 1.5 kg/m3,786.65 ± 1.5 kg/m3,781.85 ± 1.5 kg/m3,776.95 ± 1.5 kg/m3,771.97 ± 1.5 kg/m3,,
CCCO [propan-1-ol],803.52 ± 1.5 kg/m3,799.52 ± 1.5 kg/m3,795.5 ± 1.5 kg/m3,791.43 ± 1.5 kg/m3,787.31 ± 1.5 kg/m3,783.11 ± 1.5 kg/m3,778.79 ± 1.5 kg/m3
